For the assay, the target named is PI3Kδ (p110δ/p85α) (Homo sapiens (Human), UniProt O00329). Kind of assay: PI3Kδ scintillation proximity assay (Example A3). Type of assay: biochemical. The settings on record: 20 μM ATP, 20 μM PIP2, 4 nM PI3Kδ; read-out: PI3Kδ SPA IC50. Summed up: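 Human PI3Kδ (p110δ/p85α, 4 nM) with 20 μM PIP2 and 20 μM ATP plus [γ-33P]ATP in 20 mM MOPS pH 6.7, 10 mM MgCl2, 5 mM DTT, 0.03% CHAPS, 0.5% DMSO, room temperature. Reaction stopped with EDTA/excess ATP; product captured on WGA SPA beads and counted. IC50 from percent control activity vs log inhibitor.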
Chain of PI3Kδ (p110δ/p85α) (O00329 whole entry): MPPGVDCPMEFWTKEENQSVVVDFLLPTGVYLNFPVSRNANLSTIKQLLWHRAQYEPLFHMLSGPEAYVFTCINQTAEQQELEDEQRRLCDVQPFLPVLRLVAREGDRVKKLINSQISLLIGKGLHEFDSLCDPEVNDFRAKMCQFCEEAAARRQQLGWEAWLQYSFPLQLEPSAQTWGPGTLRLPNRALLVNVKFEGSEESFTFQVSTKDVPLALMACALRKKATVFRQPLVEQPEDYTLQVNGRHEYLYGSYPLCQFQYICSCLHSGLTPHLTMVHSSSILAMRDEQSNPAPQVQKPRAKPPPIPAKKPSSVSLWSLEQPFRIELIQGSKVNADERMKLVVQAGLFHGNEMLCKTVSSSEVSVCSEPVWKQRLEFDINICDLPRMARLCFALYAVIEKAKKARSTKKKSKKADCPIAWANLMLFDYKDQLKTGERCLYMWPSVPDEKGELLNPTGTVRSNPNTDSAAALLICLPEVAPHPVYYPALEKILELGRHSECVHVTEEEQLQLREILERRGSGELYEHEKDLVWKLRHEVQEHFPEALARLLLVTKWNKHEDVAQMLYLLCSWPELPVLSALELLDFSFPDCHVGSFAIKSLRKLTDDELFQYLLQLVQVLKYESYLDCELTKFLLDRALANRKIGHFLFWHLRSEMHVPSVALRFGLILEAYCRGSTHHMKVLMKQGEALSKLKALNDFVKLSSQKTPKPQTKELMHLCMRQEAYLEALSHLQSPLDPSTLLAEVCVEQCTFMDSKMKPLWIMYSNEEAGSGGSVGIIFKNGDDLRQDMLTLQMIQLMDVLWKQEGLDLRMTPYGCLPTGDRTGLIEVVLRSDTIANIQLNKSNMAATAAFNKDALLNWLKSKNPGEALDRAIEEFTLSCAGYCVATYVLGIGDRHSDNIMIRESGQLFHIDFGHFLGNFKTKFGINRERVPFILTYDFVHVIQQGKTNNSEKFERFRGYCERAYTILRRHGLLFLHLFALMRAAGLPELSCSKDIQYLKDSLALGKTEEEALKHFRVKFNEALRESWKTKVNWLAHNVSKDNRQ
Chain of PI3Kδ (p110δ/p85α) (P27986 whole entry partner): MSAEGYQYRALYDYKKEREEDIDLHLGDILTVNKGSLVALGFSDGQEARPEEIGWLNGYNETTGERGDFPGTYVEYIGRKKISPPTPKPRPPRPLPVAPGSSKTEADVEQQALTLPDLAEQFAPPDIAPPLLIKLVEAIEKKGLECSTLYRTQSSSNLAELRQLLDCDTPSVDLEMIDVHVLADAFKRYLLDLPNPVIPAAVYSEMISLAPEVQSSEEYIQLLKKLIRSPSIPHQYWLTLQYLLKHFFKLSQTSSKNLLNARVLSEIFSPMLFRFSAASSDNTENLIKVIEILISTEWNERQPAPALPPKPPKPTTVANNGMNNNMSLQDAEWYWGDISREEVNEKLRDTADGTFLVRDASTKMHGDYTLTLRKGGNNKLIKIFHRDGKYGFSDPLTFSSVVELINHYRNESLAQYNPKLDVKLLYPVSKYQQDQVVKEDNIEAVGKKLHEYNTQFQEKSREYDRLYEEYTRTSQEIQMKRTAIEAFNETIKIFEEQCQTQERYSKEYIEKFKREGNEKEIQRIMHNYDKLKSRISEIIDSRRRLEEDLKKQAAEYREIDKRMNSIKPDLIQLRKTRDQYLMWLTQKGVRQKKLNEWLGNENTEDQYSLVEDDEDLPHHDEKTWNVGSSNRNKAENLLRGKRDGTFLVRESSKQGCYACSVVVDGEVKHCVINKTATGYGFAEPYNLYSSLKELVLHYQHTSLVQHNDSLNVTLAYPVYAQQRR
Background: SPA uses beads or plates that emit light when radiolabelled molecules are held near them.
As to `COc1c(C(C)n2nc(C)c3c(N)ncnc32)cc(Cl)c(Cl)c1C1CN(C2COC2)C1` (single isomer, unassigned) [Example 304, 1-{1-[4,5-Dichloro-2-methoxy-3-(1-oxetan-3-ylazetidin-3-yl)phenyl]ethyl}-3-methyl-1H-pyrazolo[3,4-d]pyrimidin-4-amine], the IC50 – broadly, the concentration needed to halve the response being measured – was at most 10 nM.

Turning to `COc1c(C(C)n2nc(C)c3c(N)ncnc32)cc(Cl)c(Cl)c1C1CN(CC#N)C1` (single isomer, unassigned) [Example 305, (3-{3-[1-(4-Amino-3-methyl-1H-pyrazolo[3,4-d]pyrimidin-1-yl)ethyl]-5,6-dichloro-2-methoxyphenyl}azetidin-1-yl)acetonitrile], the IC50 is at most 10 nM.

Regarding `COc1c(C(C)n2nc(C)c3c(N)ncnc32)cc(Cl)c(Cl)c1C1CN(C(C)=O)C1` (single isomer, unassigned) [Example 306, 1-{1-[3-(1-Acetylazetidin-3-yl)-4,5-dichloro-2-methoxyphenyl]ethyl}-3-methyl-1H-pyrazolo[3,4-d]pyrimidin-4-amine], the IC50 was at most 10 nM.

In the case of `CCOc1c(C(C)n2nc(C)c3c(N)ncnc32)cc(Cl)c(C)c1C1CNC(=O)C1` (single isomer, unassigned) [Example 310, 4-{3-[1-(4-amino-3-methyl-1H-pyrazolo[3,4-d]pyrimidin-1-yl)ethyl]-5-chloro-2-ethoxy-6-methylphenyl}pyrrolidin-2-one], the IC50 is at most 10 nM.

Take `CCOc1c(C(C)n2nc(C)c3c(N)ncnc32)cc(Cl)c(C)c1C1CNC(=O)C1` (single isomer, unassigned) [Example 311, 4-{3-[1-(4-amino-3-methyl-1H-pyrazolo[3,4-d]pyrimidin-1-yl)ethyl]-5-chloro-2-ethoxy-6-methylphenyl}pyrrolidin-2-one]: the IC50 is at most 10 nM.

Take `CCOc1c(C(C)n2nc(C)c3c(N)ncnc32)cc(C)c(C#N)c1C1CN(CC(C)(C)O)C1` (single isomer, unassigned) [Example 321, 4-[1-(4-amino-3-methyl-1H-pyrazolo[3,4-d]pyrimidin-1-yl)ethyl]-3-ethoxy-2-[1-(2-hydroxy-2-methylpropyl)azetidin-3-yl]-6-methylbenzonitrile]: the IC50 was at most 10 nM.

Consider `CCOc1c(C(C)n2nc(C)c3c(N)ncnc32)cc(C)c(C#N)c1C1CN(C(=O)C(C)(C)O)C1` (single isomer, unassigned) [Example 322, 4-[1-(4-amino-3-methyl-1H-pyrazolo[3,4-d]pyrimidin-1-yl)ethyl]-3-ethoxy-2-[1-(2-hydroxy-2-methylpropanoyl)azetidin-3-yl]-6-methylbenzonitrile], for which the IC50 was at most 10 nM.

In the case of `CCOc1c(C(C)n2nc(C)c3c(N)ncnc32)cc(C)c(C#N)c1C1CN(CCO)C1` (single isomer, unassigned) [Example 327, 4-[-1-(4-amino-3-methyl-1H-pyrazolo[3,4-d]pyrimidin-1-yl)ethyl]-3-ethoxy-2-[1-(2-hydroxyethyl)azetidin-3-yl]-6-methylbenzonitrile], the IC50 is at most 10 nM.

As for `CCOc1c(C(C)n2nc(C)c3c(N)ncnc32)cc(Cl)c(C#N)c1-c1cncc(C#N)c1` (single isomer, unassigned) [Example 330, 5-{3-[1-(4-amino-3-methyl-1H-pyrazolo[3,4-d]pyrimidin-1-yl)ethyl]-5-chloro-6-cyano-2-ethoxyphenyl}nicotinonitrile], the IC50 is at most 10 nM.

`CCOc1c(C(C)n2nc(C)c3c(N)ncnc32)cc(Cl)c(C#N)c1-c1cncc(C(=O)N(C)C)c1` (single isomer, unassigned) [Example 331, 5-{3-[1-(4-amino-3-methyl-1H-pyrazolo[3,4-d]pyrimidin-1-yl)ethyl]-5-chloro-6-cyano-2-ethoxyphenyl}-N,N-dimethylnicotinamide]: the IC50 was at most 10 nM.

As to `COc1c(C(C)n2nc(C)c3c(N)ncnc32)cc(Cl)c(C#N)c1-c1cncc(S(C)(=O)=O)c1` (single isomer, unassigned) [Example 332, 4-[1-(4-amino-3-methyl-1H-pyrazolo[3,4-d]pyrimidin-1-yl)ethyl]-6-chloro-3-methoxy-2-[5-(methylsulfonyl)pyridin-3-yl]benzonitrile], the IC50 was at most 10 nM.

`CCOc1c(C(C)n2nc(C)c3c(N)ncnc32)cc(Cl)c(C#N)c1-c1ccnc(C(=O)N(C)C)c1` (single isomer, unassigned) [Example 334, 4-{3-[1-(4-amino-3-methyl-1H-pyrazolo[3,4-d]pyrimidin-1-yl)ethyl]-5-chloro-6-cyano-2-ethoxyphenyl}-N,N-dimethylpyridine-2-carboxamide]: the IC50 was at most 10 nM.

In the case of `CCOc1c(C(C)n2nc(C)c3c(N)ncnc32)cc(C)c(C#N)c1-c1cncc(S(C)(=O)=O)c1` (single isomer, unassigned) [Example 335, 4-[1-(4-amino-3-methyl-1H-pyrazolo[3,4-d]pyrimidin-1-yl)ethyl]-3-ethoxy-6-methyl-2-[5-(methylsulfonyl)pyridin-3-yl]benzonitrile], the IC50 is at most 10 nM.

As to `CCOc1c(C(C)n2nc(C)c3c(N)ncnc32)cc(C)c(C#N)c1-c1ccnc(C(=O)N(C)C)c1` (single isomer, unassigned) [Example 340, 4-{3-[1-(4-amino-3-methyl-1H-pyrazolo[3,4-d]pyrimidin-1-yl)ethyl]-6-cyano-2-ethoxy-5-methylphenyl}-N,N-dimethylpyridine-2-carboxamide], the IC50 is at most 10 nM.

As to `CCOc1c(C(C)n2nc(C)c3c(N)ncnc32)cc(Cl)c(F)c1C1CNC(=O)C1` (single isomer, unassigned) [Example 345, 4-{3-[1-(4-amino-3-methyl-1H-pyrazolo[3,4-d]pyrimidin-1-yl)ethyl]-5-chloro-2-ethoxy-6-fluorophenyl}pyrrolidin-2-one], the IC50 was in the range of 50 to 200 nM.

Consider `CCOc1c(C(C)n2nc(C)c3c(N)ncnc32)cc(Cl)c(F)c1C1CNC(=O)C1` (single isomer, unassigned) [Example 346, 4-{3-[1-(4-amino-3-methyl-1H-pyrazolo[3,4-d]pyrimidin-1-yl)ethyl]-5-chloro-2-ethoxy-6-fluorophenyl}pyrrolidin-2-one], for which the IC50 is at most 10 nM.

Consider `CCOc1c(C(C)n2nc(C)c3c(N)ncnc32)cc(Cl)c(F)c1C1CNC(=O)C1` (single isomer, unassigned) [Example 347, 4-{3-[1-(4-amino-3-methyl-1H-pyrazolo[3,4-d]pyrimidin-1-yl)ethyl]-5-chloro-2-ethoxy-6-fluorophenyl}pyrrolidin-2-one], for which the IC50 was at most 10 nM.

For `CCOc1c(C(C)n2nc(C)c3c(N)ncnc32)cc(Cl)c(F)c1C1CNC(=O)C1` (single isomer, unassigned) [Example 348, 4-{3-[1-(4-amino-3-methyl-1H-pyrazolo[3,4-d]pyrimidin-1-yl)ethyl]-5-chloro-2-ethoxy-6-fluorophenyl}pyrrolidin-2-one], the IC50 fell in the range of 50 to 200 nM.

As to `CCOc1c(C(C)n2nc(C)c3c(N)ncnc32)cc(Cl)c(C#N)c1C1CNC(=O)C1` (single isomer, unassigned) [Example 349, 4-[1-(4-amino-3-methyl-1H-pyrazolo[3,4-d]pyrimidin-1-yl)ethyl]-6-chloro-3-ethoxy-2-(5-oxopyrrolidin-3-yl)benzonitrile], the IC50 was at most 10 nM.

As for `CCOc1c(C(C)n2nc(C)c3c(N)ncnc32)cc(Cl)c(C#N)c1C1CNC(=O)C1` (single isomer, unassigned) [Example 350, 4-[1-(4-amino-3-methyl-1H-pyrazolo[3,4-d]pyrimidin-1-yl)ethyl]-6-chloro-3-ethoxy-2-(5-oxopyrrolidin-3-yl)benzonitrile], the IC50 is above 500 nM.

In the case of `CCOc1c(C(C)n2nc(C)c3c(N)ncnc32)cc(Cl)c(C#N)c1C1CNC(=O)C1` (single isomer, unassigned) [Example 351, 4-[1-(4-amino-3-methyl-1H-pyrazolo[3,4-d]pyrimidin-1-yl)ethyl]-6-chloro-3-ethoxy-2-(5-oxopyrrolidin-3-yl)benzonitrile], the IC50 was in the range of 50 to 200 nM.

For `CCOc1c(C(C)n2nc(C)c3c(N)ncnc32)cc(Cl)c(C#N)c1C1CNC(=O)C1` (single isomer, unassigned) [Example 352, 4-[1-(4-amino-3-methyl-1H-pyrazolo[3,4-d]pyrimidin-1-yl)ethyl]-6-chloro-3-ethoxy-2-(5-oxopyrrolidin-3-yl)benzonitrile], the IC50 is at most 10 nM.

Regarding `CCOc1c(C(C)n2nc(C)c3c(N)ncnc32)cc(Cl)c(F)c1C1COC(=O)N1` (single isomer, unassigned) [Example 354, 4-{3-[1-(4-amino-3-methyl-1H-pyrazolo[3,4-d]pyrimidin-1-yl)ethyl]-5-chloro-2-ethoxy-6-fluorophenyl}-1,3-oxazolidin-2-one], the IC50 was at most 10 nM.

`CCOc1c(C(C)n2nc(C)c3c(N)ncnc32)cc(Cl)c(F)c1C1CNC(=O)O1` (single isomer, unassigned) [Example 355, 5-{3-[1-(4-amino-3-methyl-1H-pyrazolo[3,4-d]pyrimidin-1-yl)ethyl]-5-chloro-2-ethoxy-6-fluorophenyl}-1,3-oxazolidin-2-one]: the IC50 was in the range of 50 to 200 nM.

`CCOc1c(C(C)n2nc(C)c3c(N)ncnc32)cc(Cl)c(F)c1C1CNC(=O)O1` (single isomer, unassigned) [Example 356, 5-{3-[1-(4-amino-3-methyl-1H-pyrazolo[3,4-d]pyrimidin-1-yl)ethyl]-5-chloro-2-ethoxy-6-fluorophenyl}-1,3-oxazolidin-2-one]: the IC50 lay within 50 to 200 nM.

With `CCOc1c(C(C)n2nc(C)c3c(N)ncnc32)cc(Cl)c(F)c1C1CNC(=O)O1` (single isomer, unassigned) [Example 358, 5-{3-[1-(4-amino-3-methyl-1H-pyrazolo[3,4-d]pyrimidin-1-yl)ethyl]-5-chloro-2-ethoxy-6-fluorophenyl}-1,3-oxazolidin-2-one], the IC50 is above 500 nM.

Source of the values: patent US9707233B2, “Heterocyclylamines as PI3K inhibitors” (Incyte Corporation, priority 2011, dated 2017).
